Source: patent publication US20110065645A1, “Compositions and Methods for Modulating Neuron Degeneration and Neuron Guidance” (The Regents of the University of California, priority 2009, published 2011)

Key:
PKA = experiment: Western blot of activated phospho-PKA (Thr197) in dissociated commissural neurons; format: cell-based, rat; conditions: Shh-N 2.5 μg/ml for one hour; KT5720 25 μM for 15 minutes
Experimental: To confirm that PKA activity can be reduced in commissural neurons exposed to Shh, we treated dissociated spinal cord commissural neurons with Shh and analyzed the level of activated PKA. 24 hr after plating, commissural neurons were serum starved overnight and then treated with 2.5 μg/ml (150 nM) of Shh-N recombinant protein (R&D) for one hour prior to lysate collection. Forskolin (25 μM), and the PKA inhibitor, KT5720 (25 μM) were added to the commissural neuron culture as controls for 15 minutes before lysis. We then tested these lysates for levels of activated PKA with an antibody that specifically recognizes an activated form of the catalytic domain of PKA (phosphorylated at Thr197).
Dissociated commissural neuronal culture. Spinal cords were isolated from rat E13 embryos and commissural neurons were dissociated as previously described.^(8) In brief, embryos were treated with Dispase I (0.25 mg/ml; D4818, Sigma) for 5 minutes prior isolation of spinal cords, followed by collection of spinal cord dorsal domains by microdissection and incubation with Trypsin (1 mg/ml; T47-99, Sigma) for 10-12 min in a 37° C. water bath. The tissue was then triturated with flamed glass pipettes and a single cell suspension was plated on poly-D-lysine (PDL; 20 μg/ml) and laminin (10 μg/ml) coated coverslips or 12 well plates (Corning). More than 90% cells in these cultures express TAG-1, a marker for spinal cord commissural neurons (FIG. 35B). 10^5 dissociated cells were plated on PDL/laminin coated coverslips and cultured for 24 hrs before processed for immunohistochemistry as described above. For Western blot analysis, 10^6 dissociated cells were plated on PDL/laminin coated 12-well tissue culture plates and cultured initially for 24 hrs in dorsal explant media (replenished daily) then changed to low serum medium overnight prior to treatments. […]

commissural axons = experiment: Open book spinal cord explant treatments and DiI injections (midline pathfinding); format: cell-based; conditions: rat E13 open-book; 5E1 100 ng/ml, Forskolin 25 μM, KT5720 25 μM; 12-14 hrs
Source text: Blocking Shh activity causes midline guidance defects. To determine the role of Shh in regulating midline pathfinding, we analyzed the trajectory of commissural axons in rat E13 “open-book” spinal cord preparations treated with the function-blocking antibody for Shh, 5E1. The projections of these commissural axons were visualized by injecting the lipophilic dye, DiI, to the dorsal margin of the spinal cord (FIG. 32J). In “open-book” explants, commissural axons can recapitulate the in vivo pathfinding and project from the dorsal spinal cord margin across the floor plate and then turn sharply anteriorly on the contralateral side.^(7,8). […] Normally, after midline crossing, commissural axons make a sharp anterior turn and either project into the ventral funiculus alongside the floor plate or fan out in a highly organized manner to grow laterally into the lateral funiculus^(7) (FIG. 32G). […] The spinal cord midline is a three-dimensional structure. […] Some of the injection sites were therefore scored for more than one category of phenotypes. […]
Shh may induce Sema repulsion by reducing cAMP/PKA signaling. […] In “open-book” explant cultures we treated commissural axons with the activator for adenylyl cyclase (and consequently cAMP), Forskolin and the PKA inhibitor KT5720 and analyzed commissural axon pathfidning by DiI tracing as shown in FIG. 32J. […]

CCCCCCOC(=O)[C@]1(O)C[C@@H]2O[C@@]1(C)n1c3ccccc3c3c4c(c5c6ccccc6n2c5c31)C(=O)NC4 [KT5720, reference compound]
level of activated PKA (PKA): reduce the level of activated PKA
commissural axon midline pathfinding (DiI tracing) (commissural axons): prevented a vast number of axons from entering the floor plate
